Data: US4983632A, “Use of gamma-hydroxybutyric acid salts for preparing pharmaceutical compositions for use in the treatment of alcoholism, and the compositions obtained” (Laboratorio Farmaceutico C.T. S.r.l., priority 1988, dated 1991)
Structures can show the parent of a compound that is named as a salt.

Tests used:
[1] = system: craving for ethyl alcohol in alcoholics; assay: Clinical study, craving for ethyl alcohol in alcoholics (overall); type: in vivo, man; conditions: overall clinical conclusion
Description: To the end of demostrating the efficacy of the pharmaceutical compositions according to the invention we have furthermore carried out some […] tests to evaluate the efficacy of GHB salts in obtaining and mantaining abstention from alcoholic drinks in man; we synthetically report herein below the methods followed and the results obtained in one of such studies.
(§1) Finally, to the end of proving that the craving for drinks containing ethyl alcohol ("craving" for short) can be modified by pharmacological treatment with the compositions according to the present invention, we have selected 40 alcohol-dependent individuals according to the Diagnostic and Statistic Manual, 3rd edition Revised (DMS-III R) classification.
(§2) […] a NaGHB treatment at the doses of 0.05 g/kg/day in two administrations was given for an average period of 4-6 weeks.
(§3) In order to obtain a further experimental confirmation of the results obtained in the open test, we have carried out a test in double-blind.
(§4) 80 individuals, alcohol dependent according to DSM III-R, were divided in two groups by simple randomization and treated with NaGHB or with a placebo at the doses of 0.05 g/kg/day divided in two administrations for a total of 60 days.

alcohol-preferring rats [2] = assay: Voluntary consumption of ethanol in alcohol-preferring rats, NaGHB (Table 2); type: in vivo, male Wistar rats; conditions: for Ethanol consumption, treatment: three consecutive days
Method: The trial was carried out on male Wistar rats of initial weight 130-160 g. The alcohol-preferring rats were chosen from a heterogeneous rat population having an average age of 40 days. The animals were caged individually and kept in an environment at a temperature of 24° C., with light from 8.00 to 20.00 hous. The method used to select alcohol-preferring rats was to allow the animals to choose from two bottles, one containing water and the other containing an increasingly strong ethanol solution. The tapwater and the ethanol solution were administered from graduated bottles (Richter), their positon being changed irregularly to prevent the habit of drinking from the same bottle. Starting from a 3% ethanol solution, the concentration was increased by 1% every day to a maximum of 10%. This ethanol concentration was used for the whole trial period. The experiments were carried out only on rats by whom more than 60% of the liquid drunk had been 10% ethanol. The thus chosen rats imbibed a constant mean ethanol quantity of 3.2±0.4 g/rat/day. The weight of the animals during this period was 380±35 g, and therefore the consumption of absolute alcohol per rat per kg of body weight was 8±0.54 g.
Different randomly chosen groups of these animals were respectively treated with increasing doses of the sodium salt of gamma-hydroxy butyric acid (NaGHB) wheas the control group received the same volume of physiological solution (10 ml/kg). The quantity of ethanol and water imbibed was recorded before, during and after treatment at the same time each day, and the treatment was repeated for three consecutive days.
The results of this trial are given in Table 2 which compares ethanol consumption in g/kg before, during and after treatment with NaGHB at three different doses of 150, 300 and 450 mg/kg.

mouse [3] = assay: Acute toxicity for intraperitoneal administration in the mouse; type: in vivo
[4] = as above; type: in vivo; conditions: in vivo, ip; for mortality: read-out: Mortality (M + F)
rat = assay: Chronic toxicity tests on the rat; type: in vivo
[5] = system: craving for drinks containing ethyl alcohol; assay: Craving in alcohol-dependent individuals, double-blind test; type: in vivo, man
Description: (§5) To this end we have prepared a questionnaire entitled "Restrained Drinking and Alcohol Craving Scale" (RDAGS) and we have examined whether said questionnaire was capable of differentiating between alcoholics and non-alcoholics.
as §3, §4

[6] = system: craving for drinks containing ethyl alcohol; assay: Craving in alcohol-dependent individuals, open test; type: in vivo, man
Description: as §5, §1, §2
For comparison, a group of 40 alcoholics was examined, using the same criteria as for the NaGHB treatment groups; to this group a psychological and/or socio-rehabilitation technique was applied, with no specific pharmacological support (polyvitamins only).

mouse [7] = assay: Acute toxicity for oral administration in the mouse; type: in vivo
[8] = as above; type: in vivo; conditions: in vivo; for mortality: read-out: Mortality (M+F)
[9] = system: aldehyde dehydrogenase (ALDH); assay: ALDH activity in supernatant of rat liver homogenate; type: biochemical; conditions: for ALDH activity: pyrazole 0.03M, propionaldehyde substrate, mean±M.S.E. of three experiments
Method: (§6) The ADH and ALDH activity were measured using the surnatant of rat liver homogenate. The ADH activity was measured by oxidising the ethanol to acetaldehyde in the presence of NAD in tubes containing NaGHB.
(§7) The formation of reduced nicotine-adenine dinucleotide (NADH) was determined by spectrometry measurement at 340 nm and the ALDH activity was determined in the same manner. In addition, pyrazole (0.03M) was added to the reaction mixture to inhibit ADH and propionaldehyde was added as substrate. Each value is the mean±M.S.E. of three experiments.

[10] = biological target: T1, alcohol dehydrogenase (ADH) (Rattus norvegicus, UniProt P06757); assay: ADH activity in supernatant of rat liver homogenate; type: biochemical; conditions: for ADH activity: mean±M.S.E. of three experiments
T1 construct: measured using the surnatant of rat liver homogenate; from tissue; host or cells: rat liver homogenate supernatant
Method: as §6, §7

alcohol-preferring rats [11] = assay: Inhibition of voluntary ethanol consumption by alcohol-preferring rats, PTT-01 (Table 1); type: in vivo, rat; conditions: mean of 10 animals
Description: Each value represents the mean of 10 aminals.

[12] = system: aldehyde-dehydrogenase enzyme; conditions: assumed competition with NAD on active sites; cited from earlier work
[13] = cited from earlier work
patients = conditions: cited from earlier work
[14] = 0.05 g/kg/day in two administrations, 60 days, vs placebo

T1 sequence (P06757 whole entry): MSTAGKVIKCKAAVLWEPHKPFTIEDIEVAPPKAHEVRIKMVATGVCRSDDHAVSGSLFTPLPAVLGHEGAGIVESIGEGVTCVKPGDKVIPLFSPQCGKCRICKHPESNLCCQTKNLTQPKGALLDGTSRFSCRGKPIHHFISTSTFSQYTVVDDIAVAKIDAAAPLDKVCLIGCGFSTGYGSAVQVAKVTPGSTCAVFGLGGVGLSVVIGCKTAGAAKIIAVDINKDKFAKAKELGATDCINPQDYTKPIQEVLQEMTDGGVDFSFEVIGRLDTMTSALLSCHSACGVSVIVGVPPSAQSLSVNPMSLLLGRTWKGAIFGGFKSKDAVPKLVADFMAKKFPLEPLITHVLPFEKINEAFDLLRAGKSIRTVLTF

For `O=C(O)CCCO` [GHB, gamma-hydroxybutyric acid], the “suppression of craving for ethyl alcohol in alcoholics” value [1] was “surprising activity of GHB in suppressing the craving for ethyl alcohol in alcoholics”.

In the case of `O=C(O)CCCO` [NaGHB, sodium salt of gamma-hydroxybutyric acid], the “Ethanol consumption, post-treatment” value (alcohol-preferring rats [2]; NaGHB 150 mg/kg) is reported as 7.02 ± 0.44 g/kg, the “Ethanol consumption, pretreatment” value (alcohol-preferring rats [2]; NaGHB 150 mg/kg group) is reported as 7.71 ± 0.51 g/kg and the “Ethanol consumption, treatment” value (alcohol-preferring rats [2]; NaGHB 150 mg/kg) is reported as 6.11 ± 0.21 g/kg. For the same compound, the “Ethanol consumption, post-treatment” value (alcohol-preferring rats [2]; NaGHB 300 mg/kg) was 5.88 ± 0.35 g/kg, the “Ethanol consumption, pretreatment” value (alcohol-preferring rats [2]; NaGHB 300 mg/kg group) was 7.48 ± 0.35 g/kg and the “Ethanol consumption, treatment” value (alcohol-preferring rats [2]; NaGHB 300 mg/kg) was 3.43 ± 0.23 g/kg. The “Ethanol consumption, post-treatment” value (alcohol-preferring rats [2]; NaGHB 450 mg/kg) was 5.10 ± 0.48 g/kg, the “Ethanol consumption, pretreatment” value (alcohol-preferring rats [2]; NaGHB 450 mg/kg group) was 7.82 ± 0.46 g/kg and the “Ethanol consumption, treatment” value (alcohol-preferring rats [2]; NaGHB 450 mg/kg) was 2.12 ± 0.11 g/kg. For the same compound, the “consumption of ethyl alcohol relative to consumption before treatment” value (alcohol-preferring rats [2]; daily administration, 450 mg/kg) was “below 50%”, the total imbibed fluid (alcohol-preferring rats [2]; during treatment) was “no significant reduction in total imbibed fluid” and the “Alcohol consumption and preference for alcohol after interrupting administration” value (alcohol-preferring rats [2]; five days after interruption) was “returned to their pre-treatment levels five days after interrupting the administration of the medicament”. For the same compound, the LD50 (mouse [3]) was 3210 mg/kg, the mortality ([4]; 2500 mg/kg, 2.5 g/kg) was 0% and the mortality ([4]; 3000 mg/kg, 3 g/kg) was 33.3%. It also gave a mortality ([4]; 3500 mg/kg, 3.5 g/kg) of 66.7%, a mortality ([4]; 4000 mg/kg, 4 g/kg) of 100% and an LD50 ([4]; Table 5, 95% CL 2.92-3.521) of 3210 mg/kg. For the same compound, the “toxic action at organ level” value (rat) was “No toxic action at organ level was observed”, the drop-out percentage [5, 14] was “lower, statistically significant, drop-out percentage” and the “improvement of the craving” value [5, 14] was “notable improvement of the craving”. For the same compound, the “Craving decrease induced by NaGHB” value ([5]; 40 alcohol dependents in double blind test (Table 6)) was “Efficient”, the craving reduction ([6]; 0.05 g/kg/day in two administrations, 4-6 weeks) was “statistically highly significant craving reduction” and the “Craving decrease induced by NaGHB” value ([6]; 40 alcohol-dependents in open test (Table 6)) was “Efficient”. The LD50 (mouse [7]) was 12014 mg/kg, the mortality ([8]; 10000 mg/kg, 10 g/kg) was 0% and the mortality ([8]; 11000 mg/kg, 11 g/kg) was 33.3%. It also gave a mortality ([8]; 13000 mg/kg, 13 g/kg) of 66.6%, a mortality ([8]; 15000 mg/kg, 15 g/kg) of 100% and an LD50 ([8]; Table 4, 95% CL 10.95-13.17) of 12000 mg/kg. For the same compound, the acetaldehyde metabolism [9] was “without in any way altering acetaldehyde metabolism”, the ALDH activity ([9]; 10^-3 molar) was 0.0132 ± 0.0009 D.O/min/mg prot and the ALDH activity ([9]; 10^-4 molar) was 0.0138 ± 0.0011 D.O/min/mg prot. The ALDH activity ([9]; 10^-5 molar) was 0.0135 ± 0.0010 D.O/min/mg prot, the “inhibition of aldehyde dehydrogenase (ALDH)” value ([9]; up to 10^-3 M) was “does not inhibit” and the ADH activity ([10]; 10^-3 molar) was 0.0239 ± 0.0015 D.O/min/mg prot. The ADH activity ([10]; 10^-4 molar) was 0.0240 ± 0.0018 D.O/min/mg prot, the ADH activity ([10]; 10^-5 molar) was 0.0245 ± 0.0018 D.O/min/mg prot and the “inhibition of alcohol dehydrogenase (ADH)” value ([10]; up to 10^-3 M) was “does not inhibit”.

With `CCCCC(=O)NC1CCOC1=O` (stereo not drawn) [PTT-01, α-n-butyl carbonylamino-gamma-butyro lactone] the “Ethanol consumption, pretreatment” value (alcohol-preferring rats [11]; PTT-01 100 mg/kg group) was 7.21 ± 0.40 g/kg, the “Ethanol consumption, post-treatment” value (alcohol-preferring rats [11]; PTT-01 100 mg/kg) was 7.24 ± 0.44 g/kg and the “Ethanol consumption, treatment” value (alcohol-preferring rats [11]; PTT-01 100 mg/kg) was 7.03 ± 0.38 g/kg. The “Ethanol consumption, pretreatment” value (alcohol-preferring rats [11]; PTT-01 200 mg/kg group) was 7.70 ± 0.28 g/kg, the “Ethanol consumption, post-treatment” value (alcohol-preferring rats [11]; PTT-01 200 mg/kg) was 7.36 ± 0.51 g/kg and the “Ethanol consumption, treatment” value (alcohol-preferring rats [11]; PTT-01 200 mg/kg) was 7.51 ± 0.41 g/kg. The “Ethanol consumption, pretreatment” value (alcohol-preferring rats [11]; PTT-01 300 mg/kg group) was 7.08 ± 0.19 g/kg, the “Ethanol consumption, post-treatment” value (alcohol-preferring rats [11]; PTT-01 300 mg/kg) was 6.98 ± 0.15 g/kg and the “Ethanol consumption, treatment” value (alcohol-preferring rats [11]; PTT-01 300 mg/kg) was 7.00 ± 0.46 g/kg.

For `CCN(CC)C(=S)SSC(=S)N(CC)CC` [disulfiram], the acetaldehyde oxidation rate [12] is given as “reducing the acetaldehyde oxidation rate”, the “acetaldehyde level in the blood, times greater than with alcohol alone” value ([13]; alcohol after disulfiram pretreatment vs same dose of alcohol only) is given as 5-10 times and the acetaldehyde concentration ([13]; in the presence of disulfiram) is given as “acetaldehyde concentration increases”. The “toxicity when administered alone” value (patients; alone, therapeutic doses) was “not toxic, although not completely innocuous”, the side effects (patients; disulfiram itself) was “can cause acneform eruptions, allergic dermatitis, urticaria, tiredness, fatique, tremors, reduced sexual power, gastric disturbances and digestive disturbances” and the “adverse reactions following disulfiram treatment” value (patients; following treatment, discussed with ingestion of alcohol) was “cases of respiratory depression, cardiovascular collapse, cardiac arrhythmia, myocardium infarct, and sudden or unexpected death have occurred”. The “refusal of alcoholic drinks” value (patients; patients treated) was “refuse alcoholic drinks”.
